In patent publication US9085576B2 (AMGEN INC., priority 2013, dated 2015):

Tests used:
[1] = molecular target: Beta Secretase enzyme (BACE) (Homo sapiens (Human), UniProt P56817); assay: In vitro enzymatic BACE FRET assay; format: biochemical; conditions: read-out: BACE1 Enzyme assay IC50
Cathepsin D (Cat D) = Cathepsin D (Cat D) (Homo sapiens (Human), UniProt P07339); assay: In vitro enzymatic Cathepsin D (Cat D) FRET assay; format: biochemical; conditions: read-out: CatD IC50
BACE = BACE (Homo sapiens (Human), UniProt P56817); assay: In vitro BACE cell-based assay (Aβ40 in conditioned medium, sandwich ELISA)
Chain of BACE (P56817 46-501, species assumed): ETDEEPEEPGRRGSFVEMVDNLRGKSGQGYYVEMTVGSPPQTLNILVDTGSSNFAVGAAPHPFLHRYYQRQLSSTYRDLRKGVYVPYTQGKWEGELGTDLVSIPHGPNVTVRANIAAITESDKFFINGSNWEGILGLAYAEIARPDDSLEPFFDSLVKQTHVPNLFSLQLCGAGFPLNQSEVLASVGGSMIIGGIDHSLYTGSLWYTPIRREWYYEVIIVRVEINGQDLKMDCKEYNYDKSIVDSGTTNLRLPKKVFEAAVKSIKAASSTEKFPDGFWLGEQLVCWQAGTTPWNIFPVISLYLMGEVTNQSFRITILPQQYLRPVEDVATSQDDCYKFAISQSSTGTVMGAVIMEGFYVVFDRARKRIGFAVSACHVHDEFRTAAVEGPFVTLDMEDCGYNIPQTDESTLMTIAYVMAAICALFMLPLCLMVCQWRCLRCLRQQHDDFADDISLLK

Chain of Beta Secretase enzyme (BACE) (P56817 46-501): as the sequence (P56817 46-501, species assumed) above
Chain of Cathepsin D (Cat D) (P07339 65-412, species assumed): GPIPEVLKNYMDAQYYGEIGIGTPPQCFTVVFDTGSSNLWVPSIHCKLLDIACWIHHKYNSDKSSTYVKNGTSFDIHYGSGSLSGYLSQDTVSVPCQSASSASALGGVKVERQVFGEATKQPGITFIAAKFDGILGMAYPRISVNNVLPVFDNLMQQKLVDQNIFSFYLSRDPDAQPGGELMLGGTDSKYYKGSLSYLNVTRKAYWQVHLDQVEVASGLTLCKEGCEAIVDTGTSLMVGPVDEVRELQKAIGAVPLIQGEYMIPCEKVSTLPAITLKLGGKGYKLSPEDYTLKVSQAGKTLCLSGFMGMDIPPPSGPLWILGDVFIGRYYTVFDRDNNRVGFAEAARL

IC50 [1]	IC50 (Cathepsin D (Cat D))	IC50 (BACE)	Compound
1.22 µM	1020 µM	0.232 µM	NC1=N[C@@](CF)(c2cc(NC(=O)c3ccc(Cl)cn3)cc(F)c2F)[C@@H]2C[C@@H]2O1 [Example 32, N-(3-((1 S,5R,6S)-3-amino-5-(fluoromethyl)-2-oxa-4-azabicyclo[4.1.0]hept-3-en-5-yl)-4,5-difluorophenyl)-5-chloropicolinamide]
0.118 µM	908 µM	0.0765 µM	COc1cc(Cl)cnc1C(=O)Nc1ccc(F)c([C@@]2(C(F)F)N=C(N)O[C@@H]3C[C@@H]32)c1 [Example 28, N-(3-((1R,5S,6R)-3-amino-5-(difluoromethyl)-2-oxa-4-azabicyclo[4.1.0]hept-3-en-5-yl)-4-fluorophenyl)-5-chloro-3-methoxypicolinamide]
> 40 µM	447 µM	> 15.6 µM	NC1=N[C@@](c2cc(NC(=O)C3(c4ccc(Cl)cc4)CC3)ccc2F)(C(F)F)[C@H]2C[C@H]2O1 [Example 245, N-(3-((1R,5S,6R)-3-amino-5-(difluoromethyl)-2-oxa-4-azabicyclo[4.1.0]hept-3-en-5-yl)-4-fluorophenyl)-1-(4-chlorophenyl) cyclopropanecarboxamide]
0.143 µM	1730 µM	0.0274 µM	COc1cnc(C(=O)Nc2ccc(Cl)c([C@@]3(CF)N=C(N)O[C@@H]4C[C@@H]43)c2)cn1 [Example 272]
0.0759 µM	892 µM	0.0094 µM	COc1cc(C#N)cnc1C(=O)Nc1cc(Cl)c(F)c([C@@]2(CF)N=C(N)O[C@@H]3C[C@@H]32)c1 [Example 86, N-(3-((1R,5S,6R)-3-amino-5-(fluoromethyl)-2-oxa-4-azabicyclo[4.1.0]hept-3-en-5-yl)-5-chloro-4-fluorophenyl)-5-cyano-3-methoxypicolinamide]
0.242 µM	279 µM	0.0323 µM	C[C@]1(c2nc(NC(=O)c3ccc(Cl)cn3)ccc2F)N=C(N)O[C@@H]2C[C@@H]21 [Example 326, N-(6-((1R,5S,6R)-3-amino-5-methyl-2-oxa-4-azabicyclo[4.1.0]hept-3-en-5-yl)-5-fluoropyridin-2-yl)-5-chloropicolinamide]
> 40 µM	666 µM	> 15.6 µM	COCCOCC(=O)Nc1ccc(F)c([C@@]2(C(F)F)N=C(N)O[C@@H]3C[C@@H]32)c1 [Example 255, N-(3-((1R,5S,6R)-3-amino-5-(difluoromethyl)-2-oxa-4-azabicyclo[4.1.0]hept-3-en-5-yl)-4-fluorophenyl)-2-(2-methoxyethoxy) acetamide]
0.0094 µM	311 µM	0.0064 µM	C#CCOc1cnc(C(=O)Nc2cnc(F)c([C@@]3(CF)N=C(N)O[C@@H]4C[C@@H]43)c2)cn1 [Example 206, N-(5-((1R,5S,6R)-3-amino-5-(fluoromethyl)-2-oxa-4-azabicyclo[4.1.0]hept-3-en-5-yl)-6-fluoropyridin-3-yl)-5-(prop-2-yn-1-yloxy)pyrazine-2-carboxamide]
0.0076 µM	360 µM	0.112 µM	NC1=N[C@@](c2cc(NC(=O)c3cnc(OCC#CC4CC4)cn3)ccc2F)(C(F)F)[C@H]2C[C@H]2O1 [Example 411, N-(3-((1R,5S,6R)-3-amino-5-(difluoromethyl)-2-oxa-4-azabicyclo[4.1.0]hept-3-en-5-yl)-4-fluorophenyl)-5-((3-cyclopropylprop-2-yn-1-yl)oxy)pyrazine-2-carboxamide]
0.099 µM	1070 µM	0.0148 µM	Cc1cc(C(F)F)cnc1C(=O)Nc1ccc(Cl)c([C@@]2(CF)N=C(N)O[C@@H]3C[C@@H]32)c1 [Example 122, N-(3-((1R,5S,6R)-3-amino-5-(fluoromethyl)-2-oxa-4-azabicyclo[4.1.0]hept-3-en-5-yl)-4-chlorophenyl)-5-(difluoromethyl)-3-methylpicolinamide]
0.0811 µM	846 µM	0.323 µM	NC1=N[C@@](c2cc(NC(=O)c3cnc(OCc4cnco4)cn3)ccc2F)(C(F)F)[C@H]2C[C@H]2O1 [Example 171, N-(3-((1R,5S,6R)-3-amino-5-(difluoromethyl)-2-oxa-4-azabicyclo[4.1.0]hept-3-en-5-yl)-4-fluorophenyl)-5-(oxazol-5-ylmethoxy)pyrazine-2-carboxamide]
0.732 µM	706 µM	1 µM	CC(C)Oc1cnc(C(=O)Nc2ccc(F)c([C@@]3(C(F)F)N=C(N)O[C@@H]4C[C@@H]43)c2)cn1 [Example 147, N-(3-((1R,5S,6R)-3-amino-5-(difluoromethyl)-2-oxa-4-azabicyclo[4.1.0]hept-3-en-5-yl)-4-fluorophenyl)-5-isopropoxypyrazine-2-carboxamide]
0.0296 µM	170 µM	0.301 µM	NC1=N[C@@](c2cc(NC(=O)c3cnc(C#CC4CC4)cn3)ccc2F)(C(F)F)[C@H]2C[C@H]2O1 [Example 407, N-(3-((1R,5S,6R)-3-amino-5-(difluoromethyl)-2-oxa-4-azabicyclo[4.1.0]hept-3-en-5-yl)-4-fluorophenyl)-5-(cyclopropylethynyl)pyrazine-2-carboxamide]
6.19 µM	191 µM	> 15.6 µM	COc1cnc(C(=O)Nc2ccc(F)c([C@]3(C(F)F)N=C(N)O[C@H]4C[C@H]43)c2)c(C)n1 [Example 64, N-(3-((1S,5R,6S)-3-amino-5-(difluoromethyl)-2-oxa-4-azabicyclo[4.1.0]hept-3-en-5-yl)-4-fluorophenyl)-5-methoxy-3-methylpyrazine-2-carboxamide]
0.189 µM	465 µM	0.025 µM	Cc1c(C(=O)Nc2ccc(F)c([C@@]3(CF)N=C(N)O[C@@H]4C[C@@H]43)c2)nc2ccc(Cl)cn12 [Example 200, N-(3-((1R,5S,6R)-3-amino-5-(fluoromethyl)-2-oxa-4-azabicyclo[4.1.0]hept-3-en-5-yl)-4-fluorophenyl)-6-chloro-3-methylimidazo[1,2-a]pyridine-2-carboxamide]
0.0335 µM	400 µM	0.254 µM	NC1=N[C@@](c2cc(Nc3nccc4cc(Cl)cnc34)ccc2F)(C(F)F)[C@H]2C[C@H]2O1 [Example 362, (1R,5S,6R)-5-(5-((3-chloro-1,7-naphthyridin-8-yl)amino)-2-fluorophenyl)-5-(difluoromethyl)-2-oxa-4-azabicyclo[4.1.0]hept-3-en-3-amine]
12.7 µM	292 µM	1.46 µM	COc1cnc2c(Nc3ccc(F)c([C@]4(CF)N=C(N)O[C@H]5C[C@H]54)c3F)nccc2n1 [Example 354, (1S,5R,6S)-5-(2,6-difluoro-3-((2-methoxypyrido[3,4-b]pyrazin-5-yl)amino)phenyl)-5-(fluoromethyl)-2-oxa-4-azabicyclo[4.1.0]hept-3-en-3-amine]
20.1 µM	117 µM	2.6 µM	NC1=N[C@@](c2cc(NC(=O)C3CC(=O)C3)ccc2F)(C(F)F)[C@H]2C[C@H]2O1 [Example 258, N-(3-((1R,5S,6R)-3-amino-5-(difluoromethyl)-2-oxa-4-azabicyclo[4.1.0]hept-3-en-5-yl)-4-fluorophenyl)-3-oxocyclobutane-carboxamide]
4.07 µM	370 µM	1.49 µM	C#CCOc1cnc(C(=O)Nc2cc(F)c(Cl)c([C@]3(CF)N=C(N)O[C@H]4C[C@H]43)c2)cn1 [Example 318]
0.151 µM	1470 µM	0.0735 µM	Cc1ccc(C(=O)Nc2ccc(F)c([C@@]3(C(F)F)N=C(N)O[C@@H]4C[C@@H]43)c2)nc1 [Example 190, N-(3-((1R,5S,6R)-3-amino-5-(difluoromethyl)-2-oxa-4-azabicyclo[4.1.0]hept-3-en-5-yl)-4-fluorophenyl)-5-methylpicolinamide]
> 40 µM	1610 µM	9.6 µM	C[C@@]1(c2nc(NC(=O)c3ncc(Cl)cc3Cl)ccc2F)N=C(N)O[C@H]2C[C@H]21 [Example 329, N-(6-((1S,5R,6S)-3-amino-5-methyl-2-oxa-4-azabicyclo[4.1.0]hept-3-en-5-yl)-5-fluoropyridin-2-yl)-3,5-dichloropicolinamide]
0.821 µM	48.1 µM	0.712 µM	COCC(=O)Nc1ccc(F)c([C@@]2(C(F)F)N=C(N)O[C@@H]3C[C@@H]32)c1 [Example 240, N-(3-((1R,5S,6R)-3-amino-5-(difluoromethyl)-2-oxa-4-azabicyclo[4.1.0]hept-3-en-5-yl)-4-fluorophenyl)-2-methoxyacetamide]
0.037 µM	444 µM	1.59 µM	NC1=N[C@@](c2cc(NC(=O)c3cnc(Cl)cn3)ccc2F)(C(F)F)[C@H]2C[C@H]2O1 [Example 261, N-(3-((1R,5S,6R)-3-amino-5-(difluoromethyl)-2-oxa-4-azabicyclo[4.1.0]hept-3-en-5-yl)-4-fluorophenyl)-5-chloropyrazine-2-carboxamide]
0.357 µM	1090 µM	0.62 µM	Cc1cc(OCC#N)cnc1C(=O)Nc1ccc(F)c([C@@]2(C(F)F)N=C(N)O[C@@H]3C[C@@H]32)c1 [Example 184, N-(3-((1R,5S,6R)-3-amino-5-(difluoromethyl)-2-oxa-4-azabicyclo[4.1.0]hept-3-en-5-yl)-4-fluorophenyl)-5-(cyanomethoxy)-3-methylpicolinamide]
0.245 µM	204 µM	0.144 µM	NC1=N[C@@](c2cc(NC(=O)C#Cc3ccccc3)ccc2F)(C(F)F)[C@H]2C[C@H]2O1 [Example 262, N-(3-((1R,5S,6R)-3-amino-5-(difluoromethyl)-2-oxa-4-azabicyclo[4.1.0]hept-3-en-5-yl)-4-fluorophenyl)-3-phenylpropiolamide]
0.0335 µM	690 µM	0.0123 µM	Cc1cc(NC(=O)c2ncc(C#N)cc2F)cc([C@@]2(C(F)F)N=C(N)O[C@@H]3C[C@@H]32)c1F [Example 398, N-(3-((1R,5S,6R)-3-amino-5-(difluoromethyl)-2-oxa-4-azabicyclo[4.1.0]hept-3-en-5-yl)-4-fluoro-5-methylphenyl)-5-cyano-3-fluoropicolinamide]
